Tests used:
[1] = test system: acetyl-α-tubulin in SH-SY5Y neuroblastoma cells; assay: ICC dose response of acetylated alpha-tubulin in SH-SY5Y neuroblastoma cells; assay type: cell-based; settings: 24-hour treatment
Experimental: Cell Seeding: Seeded at 2,000 cells/well in 384-well plates 24-hours prior to compound treatment
Compound Treatment: 24-hour
HDAC6 inhibitor compounds tested (1 control and 6 experimental)
9-point dose-response curves for all compounds, starting at 30 μM with 3-fold serial dilutions
4 technical replicate wells per condition tested
Cells were seeded in 90 μL media. 10 μL of 10× compound solutions added to 90 μL media for 24-hours
Fixation: 4% PFA for 15 minutes (after removing all media and washing with DPBS+0.1% Tween-20)
Permeabilization: 0.1% Triton X-100 for 20 minutes
Primary antibody: acetyl-α-tubulin (Lys40/D20G3; Cell Signaling Technologies, #5335S) 1:1000 dilution in DPBS+5% goat serum+0.1% Tween-20, 1 hour at room temp on orbital shaker
Secondary antibody: Goat anti-Rabbit IgG (H+L) Highly Cross-Adsorbed Secondary Antibody, Alexa Fluor™ Plus 488, Catalog #A32731, 1:1000 dilution+Hoechst 33342, 1:10,000 dilution in DPBS+5% goat serum+0.1% Tween-20, 1 hour at room temp on orbital shaker
High-content imaging system: Image Xpress Micro Confocal from Molecular Devices […]
Integrated fluorescence intensity of acetyl-α-tubulin was calculated using an automated image-analysis algorithm in Meta Xpress software
Average intensity per cell was calculated by dividing the integrated fluorescence intensity by the number of nuclei. […]

HDAC4 = HDAC4 (Homo sapiens, UniProt P56524); assay: HDAC selectivity panel: HDAC4; assay type: biochemical
HDAC10 = target: T1, HDAC10 (Homo sapiens, UniProt Q969S8); assay: HDAC selectivity panel: HDAC10; assay type: biochemical
T1 sequence (Q969S8 1-669): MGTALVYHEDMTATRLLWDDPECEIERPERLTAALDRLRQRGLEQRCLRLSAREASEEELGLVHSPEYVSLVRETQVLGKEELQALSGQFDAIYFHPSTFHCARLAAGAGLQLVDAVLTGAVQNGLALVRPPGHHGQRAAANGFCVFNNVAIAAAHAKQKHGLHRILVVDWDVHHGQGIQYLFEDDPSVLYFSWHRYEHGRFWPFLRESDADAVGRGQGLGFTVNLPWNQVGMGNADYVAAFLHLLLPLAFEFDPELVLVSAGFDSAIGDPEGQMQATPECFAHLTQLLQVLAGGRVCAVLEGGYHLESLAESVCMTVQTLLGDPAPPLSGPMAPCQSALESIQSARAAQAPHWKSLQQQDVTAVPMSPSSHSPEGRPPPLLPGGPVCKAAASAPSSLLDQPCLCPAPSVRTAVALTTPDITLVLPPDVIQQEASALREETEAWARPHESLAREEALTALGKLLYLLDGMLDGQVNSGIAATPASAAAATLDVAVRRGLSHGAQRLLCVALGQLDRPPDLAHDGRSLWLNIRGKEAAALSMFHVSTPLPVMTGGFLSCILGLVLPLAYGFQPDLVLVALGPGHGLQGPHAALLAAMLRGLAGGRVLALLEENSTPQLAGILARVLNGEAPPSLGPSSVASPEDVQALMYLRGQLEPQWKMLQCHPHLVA

[2] = ALS mouse model: bioanalysis of plasma, brain and CSF; assay type: in vivo, mice; settings: 4-hour timepoint, after week 16
Experimental: At 16 weeks (9+7-week behavioral assessment), animals were dosed either with the vehicle or test compound and 4 hours post dosing, CSF, blood, and brain were collected for bioanalysis. Muscles (tibialis, soleus and gastrocnemius) and spinal cord were collected for histology (optional).
After completion of week 16 (9+7-week behavioral assessment), animals were dosed with the vehicle or test compound. 4 hours post dosing, CSF and blood (retro-orbitally) were collected under mild isoflurane anesthesia. Blood was centrifuged at 5000 rpm for 10 minutes at 4° C. and separated plasma was utilized for plasma drug concentration analysis. Then animals were euthanized, and brain tissue was collected. CSF, plasma and brain tissue samples from G3 and G4 were prepared for bioanalysis and compounds were extracted, and the supernatant was injected for LC-MS/MS bioanalysis. Drug concentration of compound I-8 was calculated from respective calibration curve for G3 and G4.

[3] = G4 50 mg/kg p.o. (30 mg/kg until day 33)

Sequence of HDAC4 (P56524 whole entry, species assumed): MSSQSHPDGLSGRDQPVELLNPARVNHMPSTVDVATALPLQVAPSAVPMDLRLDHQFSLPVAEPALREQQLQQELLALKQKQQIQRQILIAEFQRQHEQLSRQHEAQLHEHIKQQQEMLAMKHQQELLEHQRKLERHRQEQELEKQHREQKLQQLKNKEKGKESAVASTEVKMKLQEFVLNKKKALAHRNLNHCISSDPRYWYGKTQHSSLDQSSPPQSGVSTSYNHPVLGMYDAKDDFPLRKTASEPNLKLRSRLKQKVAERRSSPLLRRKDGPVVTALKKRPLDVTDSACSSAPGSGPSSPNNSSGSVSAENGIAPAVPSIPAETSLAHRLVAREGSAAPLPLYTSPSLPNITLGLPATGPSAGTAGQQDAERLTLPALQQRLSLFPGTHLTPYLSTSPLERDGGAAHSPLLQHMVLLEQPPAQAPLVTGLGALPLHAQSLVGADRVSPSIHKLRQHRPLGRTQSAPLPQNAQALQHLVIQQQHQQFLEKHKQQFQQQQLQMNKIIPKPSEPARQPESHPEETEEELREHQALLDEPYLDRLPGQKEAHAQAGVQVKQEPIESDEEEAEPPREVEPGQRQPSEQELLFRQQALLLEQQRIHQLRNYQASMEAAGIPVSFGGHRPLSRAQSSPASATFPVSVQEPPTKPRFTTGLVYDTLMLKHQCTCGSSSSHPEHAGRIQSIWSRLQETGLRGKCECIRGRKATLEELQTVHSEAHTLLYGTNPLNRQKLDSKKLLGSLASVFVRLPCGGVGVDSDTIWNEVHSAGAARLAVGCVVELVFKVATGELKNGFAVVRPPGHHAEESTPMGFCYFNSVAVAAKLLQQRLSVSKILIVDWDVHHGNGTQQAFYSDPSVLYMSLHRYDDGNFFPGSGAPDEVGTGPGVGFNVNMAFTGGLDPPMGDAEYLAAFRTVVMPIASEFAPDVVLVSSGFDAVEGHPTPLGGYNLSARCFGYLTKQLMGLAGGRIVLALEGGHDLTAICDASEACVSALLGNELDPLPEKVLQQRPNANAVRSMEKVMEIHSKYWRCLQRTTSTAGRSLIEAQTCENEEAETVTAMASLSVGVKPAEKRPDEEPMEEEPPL

SMILES: CC1CN(Cc2ccc(Nc3nccc(-c4ccc(C(=O)NO)cc4)n3)cc2F)CCO1 (racemic) [Compound I-8, 4-(2-((3-fluoro-4-((2-methylmorpholino)methyl)phenyl)amino)pyrimidin-4-yl)-N-hydroxybenzamide]
- increase in acetyl-α-tubulin (ICC) [1]: induce acetylation of α-tubulin in SH-SY5Y neuroblastoma cells in a dose-dependent manner
- IC50 (HDAC4): 11.1 µM
- IC50 (HDAC10): 0.00915 µM
- Brain drug concentration (Mean) ([2]; G3 15 mg/kg p.o.): 2.34
- Plasma drug concentration (Mean) ([2]; G3 15 mg/kg p.o.): 12.35
- Brain drug concentration (Mean) [2, 3]: 3.87
- CSF drug concentration (Mean) [2, 3]: 2.70
- Plasma drug concentration (Mean) [2, 3]: 136.15
